Type in all cases: cell-based, Human cytomegalovirus
For test [1], the system named is AD169 and AD169^R. The test is described as follows: IE1 expression 2 days post-infection in fibroblasts. Here is the method: HCMV strains AD169^R (A) and AD169 (B) infection (MOI 0.2) of NHDF cells pre-treated with 0, 5, and 20 μM MBX-4992 were assessed at 1 dpi or 2 dpi based on IE1 expression by anti-IE1 immunostain. The % infection was determined using DMSO-treated as 100% infection. The error bars represent values in triplicate. Statistical tests were performed using ordinary one-way ANOVA with multiple comparisons to DMSO treated cells as a control and a Dunnett's post-test; **, p<0.01; ****, p<0.0001. (C) Total cell lysates from AD169^R-infected (MOI 0.2) ARPE-19 cells pre-treatment with DMSO, MBX-4992 (1-20 μM) or heparin (50 μg/mL) collected at 24 hpi were subjected to Western blot analysis using a rabbit anti-IE-1 antibody (lanes 1-7) and an anti-GAPDH antibody (lanes 8-14) as a loading control. The molecular weight markers and respective proteins are indicated.
(FIG. 11A-G). […] The IC50 values were similar in diverse cell types and among the different strains further supporting that NAPA compounds are effective at inhibiting CMV infection.

For test [2], the system named is HCMV GDGr K17 (GCV^R). Description: Herpes virus panel neutralization, GCV-resistant HCMV. Here is the method: To determine the specificity of MBX-4992, additional neutralization experiments were conducted using a panel of herpes viruses performed in the presence of MBX-4992. […] Collectively, the antiviral activity of MBX-4992 is equivalent to that of GCV indicating specific inhibition of CMV replication.

Test [3] relates to AD169 CMV virus. Description: Time-of-addition assay. The following applies: 10 μM added -60 to 90 minutes post-infection, infection quantified at 24 hpi. Here is the method: FIG. 5A-C are graphs showing that NAPA compounds target an early, post-attachment step of the CMV virus. (A) MBX-4992 (10 μM) was added along a time course post infection with AD169 (MOI 0.2) from −60 to 90 minutes after virus addition to NHDF fibroblasts. Infection at 24 hours was quantified after an immunostain with an anti-IE1 antibody. Percent infection was normalized to untreated cells where media was added either-60 or 90 minutes after virus addition. A schematic of the experimental design is shown.
NHDF cells (10^4) were plated in a 96-well plate overnight. A working stock of MBX-4992 at 20 μM was used as a 2×to achieve a final concentration of 10 μM. […] At […], the cells were fixed with 4% paraformaldehyde, stained with a rabbit anti-IE1 antibody followed by an anti-rabbit Alexa 647, and analyzed using the Celigo cytometer. Using the −60 DMSO treated cells as 100% infectivity, the percent relative to maximum infection was determined from cells treated with drug at different time points.
To further analyze the step of CMV entry targeted by NAPA compound MBX-4992, a time of addition assay was performed. MBX-4992 (10 μM) was added at various times during […] infection (−60, 0, 15, 30, 60, and 90 minutes post-infection (mpi)) with AD169 CMV virus and viral infection was quantified at 24 hpi. […]

This is an account of results in patent US20250177392A1, “BROAD SPECTRUM INHIBITORS OF CYTOMEGALOVIRUS” (MICROBIOTIX, INC., priority 2022, published 2025).

As usually defined, the IC50 is the concentration needed to halve the response being measured. A higher IC50 goes with weaker potency in that assay. For `Cc1nc(Nc2ccc(NC(=O)c3ccco3)cc2)cc(N2CCCC2)n1` [MBX-4992], in test [1], the IE1 expression result is given as “similarly effective at limiting IE1 expression”. This compound also returned an SI in test [2] (HCMV GDGr K17 (GCV^R)) above 83. Also, in test [2] (Human betaherpesvirus 5), inhibition was half-maximal at 1800 nM (IC50). Further, the “inhibition of infection by time of addition” value in test [3] was “most effective at preventing infection when introduced prior to and within 30 mpi”.
